Reference: ChEMBL document CHEMBL1151370, “Marine animal biosynthetic constituents for cancer chemotherapy” (1981)

System: P388
Assay: Antineoplastic activity against mouse P388 cells
Assay type: functional

Q: With CC(C)C[C@@H]1NC(=O)[C@@H]2CCCN2C(=O)[C@H](C(C)C)NC(=O)c2csc(n2)CNC(=O)c2csc(n2)[C@H](CCC(N)=O)NC1=O [DOLASTATIN 3] as the molecule, how does the ED50 read?
A: 2.7 ×10⁻⁷ ug/ml
